Results as given in the NIST ThermoML archive (doi:10.1016/j.jct.2014.06.030).
Numbers after ± are expanded uncertainties.

Assay: xn = mol fraction of the nth substance listed
Settings: 100 kPa, Liquid; for speed of sound: Sing-around technique in a fixed-path interferometer; for mass density: Vibrating tube method

Cc1ccccc1Cl [2-chlorotoluene] + C1CCCCC1
Settings | mass density, 298.15 K [kg/m3] | mass density, 303.15 K [kg/m3] | mass density, 308.15 K [kg/m3] | speed of sound, 298.15 K [m/s] | speed of sound, 303.15 K [m/s] | speed of sound, 308.15 K [m/s]
x1 = 0.1098 | 808.15 ± 1 | 803.38 ± 1 | 798.58 ± 1 | 1251.3 ± 1.2 | 1227.6 ± 1.2 | 1204.7 ± 1.2
x1 = 0.1437 | 818.67 ± 1 | 813.9 ± 1 | 809.09 ± 1 | 1251 ± 1.2 | 1227.7 ± 1.2 | 1205 ± 1.2
x1 = 0.1987 | 835.72 ± 1 | 830.93 ± 1 | 826.11 ± 1 | 1251.1 ± 1.3 | 1228.2 ± 1.2 | 1205.9 ± 1.2
x1 = 0.2356 | 847.14 ± 1 | 842.33 ± 1 | 837.5 ± 1 | 1251.5 ± 1.3 | 1228.8 ± 1.3 | 1206.7 ± 1.2
x1 = 0.2874 | 863.12 ± 1 | 858.3 ± 1 | 853.47 ± 1 | 1252.4 ± 1.3 | 1230 ± 1.3 | 1208.1 ± 1.3
x1 = 0.3256 | 874.88 ± 1 | 870.06 ± 1 | 865.22 ± 1 | 1253.4 ± 1.3 | 1231.2 ± 1.3 | 1209.5 ± 1.3
x1 = 0.3876 | 893.92 ± 1 | 889.08 ± 1 | 884.22 ± 1 | 1255.3 ± 1.3 | 1233.6 ± 1.3 | 1212.2 ± 1.3
x1 = 0.4135 | 901.85 ± 1 | 897.01 ± 1 | 892.15 ± 1 | 1256.2 ± 1.3 | 1234.8 ± 1.3 | 1213.4 ± 1.3
x1 = 0.4834 | 923.2 ± 1 | 918.34 ± 1 | 913.47 ± 1 | 1259.3 ± 1.3 | 1238.4 ± 1.3 | 1217.4 ± 1.3
x1 = 0.5243 | 935.64 ± 1 | 930.78 ± 1 | 925.9 ± 1 | 1261.4 ± 1.3 | 1240.7 ± 1.3 | 1220 ± 1.3
x1 = 0.5763 | 951.42 ± 1 | 946.54 ± 1 | 941.65 ± 1 | 1264.3 ± 1.3 | 1244 ± 1.3 | 1223.6 ± 1.3
x1 = 0.6143 | 962.9 ± 1 | 958.02 ± 1 | 953.13 ± 1 | 1266.5 ± 1.3 | 1246.6 ± 1.3 | 1226.5 ± 1.3
x1 = 0.6654 | 978.29 ± 1 | 973.4 ± 1 | 968.5 ± 1 | 1269.9 ± 1.3 | 1250.3 ± 1.3 | 1230.7 ± 1.3
x1 = 0.7154 | 993.29 ± 1 | 988.4 ± 1 | 983.48 ± 1 | 1273.4 ± 1.3 | 1254.3 ± 1.3 | 1235 ± 1.3
x1 = 0.7654 | 1008.2 ± 1 | 1003.3 ± 1 | 998.42 ± 1 | 1277.2 ± 1.3 | 1258.4 ± 1.3 | 1239.6 ± 1.3
x1 = 0.8165 | 1023.4 ± 1 | 1018.5 ± 1 | 1013.6 ± 1 | 1281.3 ± 1.3 | 1262.9 ± 1.3 | 1244.4 ± 1.3
x1 = 0.8324 | 1028.1 ± 1 | 1023.2 ± 1 | 1018.3 ± 1 | 1282.6 ± 1.3 | 1264.3 ± 1.3 | 1246 ± 1.3
x1 = 0.8965 | 1047.1 ± 1 | 1042.2 ± 1 | 1037.3 ± 1 | 1288.4 ± 1.3 | 1270.3 ± 1.3 | 1252.3 ± 1.3

C1CCOCC1 [tetrahydropyran] + C1CCCCC1
Settings | mass density, 298.15 K [kg/m3] | mass density, 303.15 K [kg/m3] | mass density, 308.15 K [kg/m3] | speed of sound, 298.15 K [m/s] | speed of sound, 303.15 K [m/s] | speed of sound, 308.15 K [m/s]
x1 = 0.0987 | 782.47 ± 1 | 777.69 ± 1 | 772.88 ± 1 | 1251.6 ± 1.2 | 1226.7 ± 1.2 | 1202.3 ± 1.2
x1 = 0.1432 | 786.46 ± 1 | 781.65 ± 1 | 776.83 ± 1 | 1250.7 ± 1.2 | 1225.6 ± 1.2 | 1201 ± 1.2
x1 = 0.1876 | 790.51 ± 1 | 785.69 ± 1 | 780.84 ± 1 | 1249.8 ± 1.2 | 1224.6 ± 1.2 | 1199.8 ± 1.2
x1 = 0.2378 | 795.2 ± 1 | 790.36 ± 1 | 785.49 ± 1 | 1249 ± 1.2 | 1223.6 ± 1.2 | 1198.7 ± 1.2
x1 = 0.2791 | 799.14 ± 1 | 794.28 ± 1 | 789.39 ± 1 | 1248.5 ± 1.2 | 1223 ± 1.2 | 1197.8 ± 1.2
x1 = 0.3165 | 802.76 ± 1 | 797.88 ± 1 | 792.98 ± 1 | 1248.1 ± 1.2 | 1222.6 ± 1.2 | 1197.3 ± 1.2
x1 = 0.3782 | 808.86 ± 1 | 803.96 ± 1 | 799.03 ± 1 | 1247.9 ± 1.2 | 1222.4 ± 1.2 | 1197 ± 1.2
x1 = 0.4237 | 813.45 ± 1 | 808.53 ± 1 | 803.59 ± 1 | 1248 ± 1.2 | 1222.5 ± 1.2 | 1197.1 ± 1.2
x1 = 0.4521 | 816.36 ± 1 | 811.43 ± 1 | 806.48 ± 1 | 1248.3 ± 1.2 | 1222.7 ± 1.2 | 1197.4 ± 1.2
x1 = 0.4982 | 821.15 ± 1 | 816.2 ± 1 | 811.24 ± 1 | 1248.8 ± 1.2 | 1223.3 ± 1.2 | 1198.1 ± 1.2
x1 = 0.5318 | 824.7 ± 1 | 819.74 ± 1 | 814.76 ± 1 | 1249.5 ± 1.2 | 1224 ± 1.2 | 1198.9 ± 1.2
x1 = 0.5643 | 828.18 ± 1 | 823.2 ± 1 | 818.21 ± 1 | 1250.2 ± 1.2 | 1224.9 ± 1.2 | 1199.9 ± 1.2
x1 = 0.5918 | 831.15 ± 1 | 826.17 ± 1 | 821.16 ± 1 | 1251 ± 1.2 | 1225.7 ± 1.2 | 1200.8 ± 1.2
x1 = 0.6236 | 834.62 ± 1 | 829.63 ± 1 | 824.61 ± 1 | 1252 ± 1.2 | 1226.8 ± 1.2 | 1202.1 ± 1.2
x1 = 0.6982 | 842.94 ± 1 | 837.92 ± 1 | 832.88 ± 1 | 1254.8 ± 1.2 | 1230 ± 1.2 | 1205.6 ± 1.2
x1 = 0.7341 | 847.03 ± 1 | 841.99 ± 1 | 836.93 ± 1 | 1256.4 ± 1.2 | 1231.7 ± 1.2 | 1207.7 ± 1.2
x1 = 0.7949 | 854.07 ± 1 | 849.02 ± 1 | 843.94 ± 1 | 1259.3 ± 1.2 | 1235 ± 1.2 | 1211.4 ± 1.2
x1 = 0.8632 | 862.2 ± 1 | 857.11 ± 1 | 852 ± 1 | 1262.9 ± 1.2 | 1238.9 ± 1.2 | 1215.8 ± 1.2
